According to PubChem BioAssay (NCI):
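48-hour exposure; five concentrations; linearly interpolated endpoints. GI50: concentration for 50% inhibition of growth. TGI marks complete inhibition of growth.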

Tests used:
Test in all cases: NCI tumour cell line growth inhibition, 48 h
A498 renal = test system: A498 renal
HCC-2998 colon = test system: HCC-2998 colon
IGROV1 ovarian = test system: IGROV1 ovarian
LOX IMVI melanoma = test system: LOX IMVI melanoma
MDA-MB-231 breast = test system: MDA-MB-231 breast
NCI-H23 lung = test system: NCI-H23 lung
NCI/ADR-RES ovarian = test system: NCI/ADR-RES ovarian
TK-10 renal = test system: TK-10 renal
UACC-257 melanoma = test system: UACC-257 melanoma
NCI-H226 lung = test system: NCI-H226 lung

Compound	GI50 (A498 renal) [µM]	TGI (A498 renal) [µM]	GI50 (HCC-2998 colon) [µM]	TGI (HCC-2998 colon) [µM]	GI50 (IGROV1 ovarian) [µM]	TGI (IGROV1 ovarian) [µM]	GI50 (LOX IMVI melanoma) [µM]	TGI (LOX IMVI melanoma) [µM]	GI50 (MDA-MB-231 breast) [µM]	TGI (MDA-MB-231 breast) [µM]	GI50 (NCI-H23 lung) [µM]	TGI (NCI-H23 lung) [µM]	GI50 (NCI/ADR-RES ovarian) [µM]	TGI (NCI/ADR-RES ovarian) [µM]	GI50 (TK-10 renal) [µM]	TGI (TK-10 renal) [µM]	TGI (UACC-257 melanoma) [µM]	TGI (NCI-H226 lung) [µM]	GI50 (UACC-257 melanoma) [µM]	GI50 (NCI-H226 lung) [µM]
O=C(/C=C/c1cccc(Cl)c1)c1ccc(Cl)cc1Cl	9.71	27.7	1.14	2.52	7.56	> 50	1.88	4.69	13	34.7	10.2	19.3	11.3	21.6	8.8	18.8				
O=C1C(c2ccccc2)=C(c2ccccc2)C(c2ccc(CCCCCCc3ccc(C4=C(c5ccccc5)C(=O)C(c5ccccc5)=C4c4ccccc4)cc3)cc2)=C1c1ccccc1				> 100		> 100						> 100				> 100	> 100			
O=c1nc2cc(-c3ccccc3)[nH]c2nn1-c1c(Cl)cc(Cl)cc1Cl		89.7		32		> 100		50				50.2				69.4	79.6	60.9		
COc1ccc(C(=O)C=C2NCCN2)cc1		> 100		> 100		> 100		> 100				> 100				> 100	> 100	> 100		
O=[N+]([O-])c1ccc(Cl)c(C2SCc3nc4ccccc4n32)c1 (stereo unspecified)		> 100		> 100		> 100						> 100				> 100	93	69.1		
COc1ccc(/C=C\c2cc(OC)c(OC)c(OC)c2)c(NS(=O)(=O)c2ccc(C)cc2)c1O	0.022	0.0805	0.0904	10.9	0.075	> 100	0.0509	> 100	0.0516	29.9	0.0451	49.6	0.169	14.7	3.8	> 100	> 100		17.8	
COc1ccc(O)c2c1C(=O)CCCC2=O		> 100		> 100		> 100		> 100				> 100				> 100	> 100			
COc1ccc(NC(=O)c2cc(OC)c(OC)c(OC)c2)cc1O	2.73	32.9	14.6	> 100	8.86	> 100	8.33	> 100	6.79	> 100	5.32	> 100	1.13	> 100	> 100	> 100		> 100		13.8
COc1cc(C2C(C(=O)Nc3ccccc3)=C(C)NC(C)=C2C(=O)Nc2ccccc2)ccc1O		> 100		> 100		> 100						> 100				> 100	> 100	> 100		
CN(O)C(=O)Cc1ccccc1				> 100		> 100		> 100				> 100				> 100	> 100	> 100		
CCc1cccc(C)c1NC(=O)NS(=O)(=O)c1ccc(C)cc1		> 100		> 100		> 100		> 100				> 100				> 100	> 100			
COc1ccc(NC(=O)C(=O)C2NC(=S)NC2=O)c(OC)c1 (stereo unspecified)		> 100		> 100		> 100		> 100				> 100				> 100	> 100	> 100		
Cc1cc(C)nc(NS(=O)(=O)c2ccc(NC(=O)c3cccc4cc5ccccc5nc34)cc2)n1		50.5				> 100		56.1				86.5				> 100	> 100	46.5		
COC(=O)C1=C(C(=O)OC)C2(C(=O)OC)OC1(OC)C(C1(C(=O)OC)C(C(=O)OC)=C1C(=O)OC)=C2C(=O)OC (stereo unspecified)				> 100		> 100		> 100				> 100				> 100	> 100	> 100		
Cc1cc(C)c(C(=O)OC(c2ccccc2)C(c2ccccc2)N2CCOCC2)c(C)c1 (stereo unspecified)		> 100		> 100		> 100		> 100				> 100				> 100	> 100	> 100		
O=[N+]([O-])c1ccccc1C1N2CCCCC2[C@@H]2c3[nH]c4ccccc4c3CCN12 (stereo partly specified)		25.2				40.9						27.5				38.4	26.7			
O=C1C2=C(c3ccccc31)C(c1ccccc1Cl)N1C(=O)CSC1=N2 (stereo unspecified)		> 100		> 100		> 100		> 100				> 100				> 100	> 100	> 100		
O=c1[nH]c(=S)[nH]c(O)c1/C=C1\C=CC=N1		84.3		25		65		46.2				40				37.7	72.4	33.4		
COc1cc(Br)c(CC2=NCCc3cc(OC)c(OC)cc32)cc1OC		76.3		43.4		> 100		> 100				> 100				> 100	70.6	> 100		
CC1=C2C(c3ccccc3)(c3ccccc3)C3C=CC2(C=N3)N(C(=O)NC2CCCCC2)C1=O (stereo unspecified)		31.6		32.4		35.7		29.5				32.5					30.9			
COc1cccc(C2C(C(=O)Nc3cc(=O)n(C)c(=O)n3C)=C(C)NC(C)=C2C(=O)Nc2cc(=O)n(C)c(=O)n2C)c1O		> 100		> 100		> 100		> 100				> 100				> 100	> 100	> 100		
Fc1ccc(-c2ncn(C3CCNCC3)c2-c2ccnc(Oc3cccc(F)c3)n2)cc1	> 25	> 25	7.14	> 25	12.4	> 25	10.5	> 25	9.99	> 25			> 23.4	> 25	17.1	> 25				

Compound	GI50 (A498 renal) [µM]	TGI (A498 renal) [µM]	GI50 (HCC-2998 colon) [µM]	TGI (HCC-2998 colon) [µM]	GI50 (IGROV1 ovarian) [µM]	TGI (IGROV1 ovarian) [µM]	GI50 (LOX IMVI melanoma) [µM]	TGI (LOX IMVI melanoma) [µM]	GI50 (MDA-MB-231 breast) [µM]	TGI (MDA-MB-231 breast) [µM]	GI50 (NCI-H23 lung) [µM]	TGI (NCI-H23 lung) [µM]	GI50 (NCI/ADR-RES ovarian) [µM]	TGI (NCI/ADR-RES ovarian) [µM]	GI50 (TK-10 renal) [µM]	TGI (TK-10 renal) [µM]	TGI (UACC-257 melanoma) [µM]	TGI (NCI-H226 lung) [µM]	GI50 (UACC-257 melanoma) [µM]	GI50 (NCI-H226 lung) [µM]
Cc1ccc(Nc2ccc(Nc3ccc(C)cc3)c3c2C(=O)c2c(O)ccc(O)c2C3=O)cc1		> 100		> 100		> 100		> 100				> 100				> 100	> 100			
C=C(C)C1/C=C(/C(C)C)CC[C@]2(C)O[C@@H]2CC[C@H](C)CC1=O (stereo partly specified)	83.4	> 100	99.9	> 100	77.8	> 100	23.3	57.6			87	> 100	87.4	> 100	66.6	> 100		> 100		> 100
COc1cc2c(cc1C)n(O)c(C)c(C(=O)C/C(=N/NC(=O)C[N+](C)(C)C)C(=O)Nc1cccc(Cl)c1C)[n+]2=O		> 100		> 100		> 100		> 100				> 100				> 100	> 100	> 100		
CCOC(=O)C(C[Si](C)(C)C)P(=O)(OCC)OCC (stereo unspecified)				> 100		> 100		> 100				> 100				> 100	> 100	> 100		
O=Cc1coc2ccccc2c1=O		> 100				41.4		37.1		48.4		70.7		34.9		60.5	46.7	84.4		
COc1ccc(/C=C2\COc3ccc(-c4ccccc4)cc3C2=O)cc1O	2.4	6.1	3.31	10.3	4.37	15.9	1.85	3.87	3.98	20.2	4.09	16.6	3.39	14	2.14	8.3		32.9		15.3
CCC1(CN(C)C)CC/C(=C\c2ccc3c(c2)OCO3)C1=O (stereo unspecified)		> 100		> 100		> 100		> 100				> 100				> 100	> 100	> 100		
CC1OC(O)C(O)C(O)C1O (stereo unspecified)		> 100				> 100		> 100		> 100		> 100		> 100		> 100	> 100	> 100		
C[Si](C)(C)/C=C/CN1C(=O)CCC1O (stereo unspecified)		> 100		> 100		> 100		> 100				> 100				> 100	> 100	> 100		
CCOC(=O)C12CC1(C(=O)OCC)C1CCC2C1 (stereo unspecified)		> 100		> 100		> 100		> 100				> 100				> 100	> 100	> 100		
CC(=O)/C(C)=N/N/C(N)=N\S(=O)(=O)c1cc(C(=O)Nc2ccccc2)c(Cl)cc1SCc1ccccc1	55.9	> 100			29.9	> 100	4.83	> 100	5.94	> 100	42.8	> 100	> 100	> 100	62.4	> 100	> 100	> 100	34.8	66.7
Fc1ccccc1C1CC(C(c2ccccc2)c2ccccc2)=Nc2ccccc2S1 (stereo unspecified)		20		17.6		28.8		19.7				24.7				25.2	30.6	32.6		
CCC1(OC(C)=O)C(=O)OCc2c1cc1n(c2=O)Cc2cc3ccccc3nc2-1 (stereo unspecified)		25.5		> 100		> 100		13.5				4.6				> 100	> 100	4.55		
COC1=C(OC)CCC(/C(C#N)=C/c2ccc(OC)c(OC)c2)=C1		> 100		> 100		> 100		> 100				> 100				98	> 100	> 100		
Cc1ccc(NC(=O)C(=O)Cc2nc3ccccc3o2)c(C)c1				> 100		> 100		> 100				> 100				> 100	> 100	> 100		
CCCCCCCCCC(=O)CC(=O)c1c(O)cccc1O				> 100		> 100		49.6				> 100				> 100	> 100	70.2		
COc1ccccc1/C=C\c1cc(OC)c(OC)c(OC)c1		54.7				> 100		> 100								> 100	> 100	96.2		
c1ccc(-c2nc(N3CCNCC3)c3nc(-c4ccccc4)oc3n2)cc1	1.42	2.76	1.81	3.49	1.65	3.14	1.66	3.17	1.67	3.2	1.76	3.32	1.87	3.69	1.67	3.32	3.81		1.93	
O=c1cccccc1NCCCCNc1cccccc1=O		> 100		> 100		> 100		> 100				> 100				> 100	> 100	> 100		
CC(=O)OC1CCC2(C)C(=CC(C3C=C4CC(OC(C)=O)CCC4(C)C4=C3C3CC5OC6(CCC(C)CO6)C(C)C5C3(C)CC4)C3=C2CCC2(C)C3CC3OC4(CCC(C)CO4)C(C)C32)C1 (stereo unspecified)		30.8				23.6		30.1		32		27.9		37.7		27.6	21.9	41.5		
CC(C)(C)CC(C)(C)c1ccc(OCCOCCSC(=N)N)cc1			1.25	2.56	2.3	4.81	1.72	3.09	1.34	2.94	2.85	7.38	2.59	6.61	2.47	5.19	3.18		1.69	
